{"source": "patent US11986475B1", "about": "“Compositions and methods for treating cancer” (A2A Pharmaceuticals, Inc., priority 2022, dated 2024)", "key": {"SKOV-3 xenograft": {"tested_on": "SKOV-3 xenograft", "test": "SKOV-3 xenograft tumor growth", "type": "in vivo, female athymic Balb/c nude mice", "details": "SKOV-3 xenograft, 20, 25 and 30 mpk BID", "protocol": "(§1) Compound 80 was tested in other xenograft models using the following cell lines: triple negative breast cancer cell line, MDA-MB-231, ovarian cancer cell line, SKOV-3 and endometrium cell line, HEC-59. For the SKOV-3 xenograft, 1.5×10^7 SKOV-3 cells in 200 μl of 1:1 DMEM: Matrigel (Thermo Fisher, NJ, USA) and for the MDA-MB-231 xenograft, 1.5×10^7 MDA-MB-231 cells in 100 μl of 1:1 DMEM: Matrigel (Thermo Fisher, NJ, USA) for was injected in the right flank of six-to-eight-week-old female athymic Balb/c nude mice. When the tumor volume reached mean of ˜200 mm^3 mice for SKOV-3 xenografts and between 150-175 mm^3 for MDA-MB-231 xenografts, mice were randomized in a group of 8, and treatment was initiated vehicle, 20 mpk BID, 25 mpk BID and 30 mpk BID of Compound 80. For the HEC-59 xenografts, 1.×10^7 HEC-59 cells in 100 μl of DMEM (Lonza, NJ, USA) was injected in the right flank of six-to-eight-week-old female athymic Balb/c nude mice. When the tumor volume reached mean of ˜150 mm^3 mice were randomized in a group of 8 mice, and treatment was initiated vehicle, 20 mpk BID, 40 mpk QD and 30/40 mpk BID of Compound 80."}, "HEC-59": {"tested_on": "HEC-59", "test": "Cell viability assay (SRB or CTG) in HEC-59", "type": "cell-based", "details": "Homo sapiens, 7 days total, media renewed at day 4, SRB or CTG", "protocol": "(§2) Human breast carcinoma cell line, MDA-MB-231 and human endometrial cancer cell line, HEC-59 were purchased from ATCC (American Type Culture Collection; USA). MDA-MB-231 cells were cultured in Dulbecco's modified Eagle's medium (Lonza, NJ, USA), and HEC-59 were grown in Iscove's Modified Dulbecco's Medium (Lonza, NJ, USA), supplemented with 10% fetal bovine serum (FBS, Lonza), 1% non-essential amino acid (NEAA), 2 mM L-glutamine (Sigma Aldrich, MO, USA) and 50 U/ml penicillin/streptomycin (P/S). All cell lines were tested regularly using MycoAlert Mycoplasma Detection Kit (Lonza). The cumulative length of the cells between thawing and use in the experiments was less than 20 passages.\n(§3) 4000 cells/well of MDA-MB-231 and HEC-59 cells were seeded in a 96 well plate in 80 μL media/well. Approximately 18 hours later, 3× drug solutions were prepared by serial dilution (100, 10, 5, 1, 0.5, 0.3, 0.1, 0.05, 0.01 μM), and the drug containing media was added to each well with a volume of 40 μL. For MDA-MB-231, 3 days after drug treatment, the SRB or CTG assay was performed. HEC59, the drug containing media was renewed at day 4. After 7 days total, the SRB or CTG assay was performed."}, "MDA-MB-231 xenograft": {"tested_on": "MDA-MB-231 xenograft", "test": "MDA-MB-231 xenograft tumor growth", "type": "in vivo, female athymic Balb/c nude mice", "details": "MDA-MB-231 xenograft, 20, 25 and 30 mpk BID", "protocol": "as §1"}, "HEC-59 xenograft": {"tested_on": "HEC-59 xenograft", "test": "HEC-59 xenograft tumor growth", "type": "in vivo, female athymic Balb/c nude mice", "details": "20 mpk BID, 40 mpk QD and 30/40 mpk BID", "protocol": "as §1"}, "MDA-MB-231": {"tested_on": "MDA-MB-231", "test": "Cell viability assay (SRB or CTG) in MDA-MB-231", "type": "cell-based", "details": "Homo sapiens, MDA-MB-231, 72 h, 3 days after drug treatment", "protocol": "as §2, §3"}, "RKO xenograft": {"tested_on": "RKO xenograft", "test": "RKO colon cancer xenograft tumor growth", "type": "in vivo, female athymic Balb/c nude mice", "protocol": "Six-to-eight-week-old female athymic Balb/c nude mice were housed with a temperature-controlled and 12-hour light/12-hour dark cycle environment. For in vivo colon cancer tumor growth, 5×10^6 RKO cells were prepared in 100 μl of DMEM and injected into right flank of female nude mice. Mouse weight and tumor volume were measured twice a week. Tumor volumes were calculated as length×width^2×0.5. Once the tumor volume had reached about 150-175 mm^3, xenografts were randomized into groups (8 mice per group). Animals were treated with vehicle, Compound 80 or oxaliplatin as mentioned in the table. The formulation for vehicle and Compound 80 was 50% PEG400 and 20% Cremophor RH40 final (50% of 40% Cremophor) in Acetate buffer, PH=4. Oxaliplatin was prepared in glucose solution. The mice were sacrificed after around 3 weeks or if the tumors reached a predefined tumor volume cut-off of 2500 mm^3."}}, "data": [{"smiles": "C[C@@H]1CN(c2ncc(F)c(Nc3cc(-c4ccc(OC(F)F)cc4)cnn3)n2)C[C@H](C)O1", "note": "[Compound 80, 5-(4-(difluoromethoxy)phenyl)-N-(2-((2R,6S)-2,6-dimethylmorpholino)-5-fluoropyrimidin-4-yl)pyridazin-3-amine]", "values": [{"measurement": "tumor growth inhibition or regression", "setting": "SKOV-3 xenograft", "result": "Statistically significant tumor growth inhibition or regression was observed"}, {"measurement": "IC50", "setting": "HEC-59", "result": 236, "unit": "nM"}, {"measurement": "tumor growth inhibition or regression", "setting": "MDA-MB-231 xenograft", "result": "Statistically significant tumor growth inhibition or regression was observed"}, {"measurement": "tumor growth inhibition or regression", "setting": "HEC-59 xenograft", "result": "Statistically significant tumor growth inhibition or regression was observed"}, {"measurement": "IC50", "setting": "MDA-MB-231", "result": 398, "unit": "nM"}, {"measurement": "tumor growth inhibition (in words)", "setting": "RKO xenograft; RKO xenograft, 20 and 30 mg/kg BID, 50 mg/kg QD PO", "result": "strong tumor growth inhibition in a dose-dependent manner"}, {"measurement": "TGI", "setting": "RKO xenograft; RKO xenograft, at the highest dose, PO, 20 days", "result": 85, "unit": "%"}, {"measurement": "tumor growth inhibition compared to the standard of care (FIG. 1)", "setting": "RKO xenograft; xenograft model, versus standard of care (oxaliplatin)", "result": "superior tumor growth inhibition"}]}]}
